molecular target: T1, human IKK-β (Homo sapiens, UniProt O14920); experiment: IKK-β kinase inhibitory assay; format: biochemical; settings: compounds as yielded by solid phase synthesis, purity about 40 to 90%, read-out: In vitro activity grade (In vitro IC50)
T1 construct: A cDNA fragment encoding human IKK-β open reading frame was generated by PCR; His tag (from pcDNA3.1/His C); made in house; host or cells: Sf21 insect cells (baculovirus); substrate made in E. coli
T1 sequence (O14920 1-756): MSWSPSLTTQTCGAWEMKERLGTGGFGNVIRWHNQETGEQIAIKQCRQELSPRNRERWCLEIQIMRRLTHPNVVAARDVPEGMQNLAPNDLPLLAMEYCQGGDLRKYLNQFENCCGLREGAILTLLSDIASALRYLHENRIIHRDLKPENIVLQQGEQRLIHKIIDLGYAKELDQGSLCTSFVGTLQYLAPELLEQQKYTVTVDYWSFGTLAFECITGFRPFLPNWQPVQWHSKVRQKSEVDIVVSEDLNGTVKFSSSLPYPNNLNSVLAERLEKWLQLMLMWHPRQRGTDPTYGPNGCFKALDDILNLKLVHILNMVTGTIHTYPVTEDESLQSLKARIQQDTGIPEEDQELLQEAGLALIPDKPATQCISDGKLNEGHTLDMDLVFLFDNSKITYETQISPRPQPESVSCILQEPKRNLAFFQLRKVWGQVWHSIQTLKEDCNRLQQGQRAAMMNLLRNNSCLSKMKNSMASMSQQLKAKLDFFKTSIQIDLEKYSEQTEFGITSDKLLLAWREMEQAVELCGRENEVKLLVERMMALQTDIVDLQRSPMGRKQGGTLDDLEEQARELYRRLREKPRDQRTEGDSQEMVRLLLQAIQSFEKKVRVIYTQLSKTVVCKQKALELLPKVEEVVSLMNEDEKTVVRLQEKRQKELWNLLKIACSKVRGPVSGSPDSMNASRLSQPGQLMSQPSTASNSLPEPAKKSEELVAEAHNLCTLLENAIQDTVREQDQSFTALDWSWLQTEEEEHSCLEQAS
In short: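 Radiometric read-out: streptavidin capture of 33P-labelled bio-GST-IκBα(1-54), 0.2 μM, after a 2 h room-temperature reaction started with ATP/[γ-33P]ATP. Enzyme was recombinant His-tagged human IKK-β expressed in Sf21 insect cells, used at 0.6 μg/ml in Tris-HCl pH 7.6/MgCl2 kinase buffer. Compounds added in 2.5% DMSO.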

| IC50 [nM] | Structure (SMILES) |
| --- | --- |
| < 500 | O=C(NC1CC1)c1cc2c(C3CCCNC3)cc(-c3c(O)cccc3OCC3CC3)nc2[nH]c1=O (centres unmarked) [Example 31-21] |
| < 500 | NC(=O)C1Cc2c(C3CCCNC3)cc(-c3c(O)cccc3OCC3CC3)nc2NC1=O (centres unmarked) [Example 26-05] |
| < 500 | CNCCNc1cc(-c2ccccc2O)nc(N)c1C#N [Example 34-12] |
| 2000 to 10000 | N#Cc1c(N2CCCC(C(N)=O)C2)cc(-c2ccccc2O)nc1N (centres unmarked) [Example 34-06] |
| < 500 | O=C(NC1CCCCC1)c1cc2c(C3CCCNC3)cc(-c3c(O)cccc3OCC3CC3)nc2[nH]c1=O (centres unmarked) [Example 31-18] |
| < 500 | N#Cc1c(N2CCNCC2)cc(-c2ccccc2O)nc1N [Example 34-09] |
| 500 to 2000 | N#Cc1c(N2CCCNCC2)cc(-c2ccccc2O)nc1N [Example 34-08] |
| < 500 | NC(=O)c1cc2c(C3CCCNC3)cc(-c3c(O)cccc3OCC3CC3)nc2[nH]c1=O (centres unmarked) [Example 25-08] |
| < 500 | CCCOc1cccc(O)c1-c1cc(C2CCCNC2)c2c(n1)NC(=O)C(C(=O)OCC)C2 (centres unmarked) [Example 26-06] |
| < 500 | O=C1CCc2c(C3CCNCC3)cc(-c3c(O)cccc3OCC3CC3)nc2N1 [Example 27-04] |
| < 500 | N#Cc1c(NCCCN)cc(-c2ccccc2O)nc1N [Example 34-11] |
| < 500 | O=C(NC1Cc2ccccc2C1)c1cc2c(C3CCCNC3)cc(-c3c(O)cccc3OCC3CC3)nc2[nH]c1=O (centres unmarked) [Example 31-12] |
| < 500 | O=C(NCC1CCCCC1)c1cc2c(C3CCCNC3)cc(-c3c(O)cccc3OCC3CC3)nc2[nH]c1=O (centres unmarked) [Example 31-19] |
| < 500 | O=C(NCCc1ccccc1)c1cc2c(C3CCCNC3)cc(-c3c(O)cccc3OCC3CC3)nc2[nH]c1=O (centres unmarked) [Example 31-17] |
| < 500 | CCOC(=O)C1Cc2c(C3CCNCC3)cc(-c3c(O)cccc3OCC3CC3)nc2NC1=O (centres unmarked) [Example 26-04] |
| < 500 | COCCNC(=O)c1cc2c(C3CCCNC3)cc(-c3c(O)cccc3OCC3CC3)nc2[nH]c1=O (centres unmarked) [Example 31-07] |
| < 500 | O=C(NC1CCCCCC1)c1cc2c(C3CCCNC3)cc(-c3c(O)cccc3OCC3CC3)nc2[nH]c1=O (centres unmarked) [Example 31-24] |
| < 500 | CN(C)CCNC(=O)c1cc2c(C3CCCNC3)cc(-c3c(O)cccc3OCC3CC3)nc2[nH]c1=O (centres unmarked) [Example 31-11] |
| < 500 | N#Cc1c(NCCNS(=O)(=O)c2ccccc2)cc(-c2c(O)cccc2OCC2CC2)nc1N [Example 34-17] |
| < 500 | O=C(NC(c1ccccc1)c1ccccc1)c1cc2c(C3CCCNC3)cc(-c3c(O)cccc3OCC3CC3)nc2[nH]c1=O (centres unmarked) [Example 31-13] |
| < 500 | N#Cc1c(NCCNC(=O)c2ccccc2)cc(-c2c(O)cccc2OCC2CC2)nc1N [Example 34-16] |
| < 500 | C[C@@H](NC(=O)c1cc2c(C3CCCNC3)cc(-c3c(O)cccc3OCC3CC3)nc2[nH]c1=O)c1ccccc1 (some centres unmarked) [Example 31-15] |
| < 500 | O=c1[nH]c2nc(-c3c(O)cccc3OCC3CC3)cc(C3CCCNC3)c2cc1[N+](=O)[O-] (centres unmarked) [Example 25-05] |
| < 500 | N#Cc1c(NCCN)cc(-c2ccccc2O)nc1N [Example 34-10] |
| < 500 | O=c1[nH]c2nc(-c3c(O)cccc3OCC3CC3)cc(C3CCCNC3)c2cc1S(=O)(=O)c1ccccc1 (centres unmarked) [Example 25-07] |

| IC50 [nM] | Structure (SMILES) |
| --- | --- |
| < 500 | C[C@H](NC(=O)c1cc2c(C3CCCNC3)cc(-c3c(O)cccc3OCC3CC3)nc2[nH]c1=O)C(=O)O (some centres unmarked) [Example 31-16] |
| < 500 | N#Cc1c(NC2CCNCC2)cc(-c2ccccc2O)nc1N [Example 34-07] |
| < 500 | N#Cc1c(NCCNCc2ccccc2)cc(-c2c(O)cccc2OCC2CC2)nc1N [Example 34-15] |
| < 500 | C[C@H](NC(=O)c1cc2c(C3CCCNC3)cc(-c3c(O)cccc3OCC3CC3)nc2[nH]c1=O)c1ccccc1 (some centres unmarked) [Example 31-14] |
| < 500 | CC(=O)NCCNc1cc(-c2c(O)cccc2OCC2CC2)nc(N)c1C#N [Example 34-19] |
| < 500 | CNC(=O)c1cc2c(C3CCCNC3)cc(-c3c(O)cccc3OCC3CC3)nc2[nH]c1=O (centres unmarked) [Example 31-03] |
| < 500 | O=C1CCc2c(C3CCCNC3)cc(-c3c(O)cccc3OCC3CC3)nc2N1 (centres unmarked) [Example 27-03, 7-[2-(cyclopropylmethoxy)-6-hydroxyphenyl]-5-(3-piperidinyl)-3,4-dihydro-1,8-naphthyridin-2(1H)-one] |
| < 500 | O=C(NCc1ccccc1)c1cc2c(C3CCCNC3)cc(-c3c(O)cccc3OCC3CC3)nc2[nH]c1=O (centres unmarked) [Example 31-06] |
| < 500 | N#Cc1c(NCCNCc2ccccc2)cc(-c2ccccc2O)nc1N [Example 34-13] |
| < 500 | CCCC(CCC)NC(=O)c1cc2c(C3CCCNC3)cc(-c3c(O)cccc3OCC3CC3)nc2[nH]c1=O (centres unmarked) [Example 31-26] |
| < 500 | CCC(CC)NC(=O)c1cc2c(C3CCCNC3)cc(-c3c(O)cccc3OCC3CC3)nc2[nH]c1=O (centres unmarked) [Example 31-25] |
| < 500 | CCOC(=O)C1Cc2c(C3CCCNC3)cc(-c3c(O)cccc3OCC3CC3)nc2NC1=O (centres unmarked) [Example 26-03] |
| < 500 | O=C(c1cc2c(C3CCCNC3)cc(-c3c(O)cccc3OCC3CC3)nc2[nH]c1=O)N1CCOCC1 (centres unmarked) [Example 31-08] |
| < 500 | CCCOc1cccc(O)c1-c1cc(C2CCCNC2)c2c(n1)NC(=O)CC2 (centres unmarked) [Example 27-02] |
| < 500 | O=C(NC1CCC1)c1cc2c(C3CCCNC3)cc(-c3c(O)cccc3OCC3CC3)nc2[nH]c1=O (centres unmarked) [Example 31-22] |
| < 500 | O=C(c1cc2c(C3CCCNC3)cc(-c3c(O)cccc3OCC3CC3)nc2[nH]c1=O)N1CCNCC1 (centres unmarked) [Example 31-09] |
| < 500 | N#Cc1cc2c(C3CCCNC3)cc(-c3c(O)cccc3OCC3CC3)nc2[nH]c1=O (centres unmarked) [Example 25-06] |
| < 500 | O=C(NC1CCCC1)c1cc2c(C3CCCNC3)cc(-c3c(O)cccc3OCC3CC3)nc2[nH]c1=O (centres unmarked) [Example 31-23] |
| < 500 | N#Cc1c(NCCNC(=O)Nc2ccccc2)cc(-c2c(O)cccc2OCC2CC2)nc1N [Example 34-18] |
| < 500 | CCCOc1cccc(O)c1-c1cc(C2CCNCC2)c2c(n1)NC(=O)CC2 [Example 27-05] |
| < 500 | O=C(c1cc2c(C3CCCNC3)cc(-c3c(O)cccc3OCC3CC3)nc2[nH]c1=O)N1CCCC1 (centres unmarked) [Example 31-05] |
| < 500 | O=C(NCC(F)(F)F)c1cc2c(C3CCCNC3)cc(-c3c(O)cccc3OCC3CC3)nc2[nH]c1=O (centres unmarked) [Example 31-27] |
| < 500 | CN(C)C(=O)c1cc2c(C3CCCNC3)cc(-c3c(O)cccc3OCC3CC3)nc2[nH]c1=O (centres unmarked) [Example 31-04] |
| < 500 | O=C(NCCO)c1cc2c(C3CCCNC3)cc(-c3c(O)cccc3OCC3CC3)nc2[nH]c1=O (centres unmarked) [Example 31-20] |
| < 500 | CC(C)NC(=O)c1cc2c(C3CCCNC3)cc(-c3c(O)cccc3OCC3CC3)nc2[nH]c1=O (centres unmarked) [Example 31-10] |

Source: US6984649B1, “Pyridine derivatives” (Bayer Aktiengesellschaft, priority 2000, dated 2006)
